Laboratory results taken from ChEMBL document CHEMBL5120971, “Network Pharmacology Research and Dual-omic Analyses Reveal the Molecular Mechanism of Natural Product Nodosin Inhibiting Muscle-Invasive Bladder Cancer in Vitro and in Vivo” (J Nat Prod, 2022).
The source made the active and inactive calls. The rule behind the calls is not given here.

What was measured:
[1] = tested on: T-24; test: Effect on SUMO3 expression in human T24 cells at 6 uM measured after 24 to 30 hrs by proteomic analysis; format: functional, cell-based; settings: time 24-30 hrs
[2] = tested on: T-24; test: Effect on MDC1 expression in human T24 cells at 6 uM measured after 24 to 30 hrs by proteomic analysis; format: functional, cell-based; settings: time 24-30 hrs
[3] = tested on: T-24; test: Induction of autophagy in human T24 cells assessed as effect on OPTN gene expression at 12 to 18 uM measured after 24 to 30 hrs by analysis; format: functional, cell-based; settings: dose 12-18 µM, time 24-30 hrs
[4] = tested on: T-24; test: Induction of apoptosis in human T24 cells assessed as necrotic cells at 8 uM measured after 48 hrs by Annexin V-FITC/propidium iodide staining based flow cytometry (reference value: 0.57%); format: functional
[5] = tested on: T-24; test: Induction of apoptosis in human T24 cells assessed as early apoptotic cells at 8 uM measured after 48 hrs by Annexin V-FITC/propidium iodide staining based flow cytometry (reference value: 1.2%); format: functional
[6] = tested on: T-24; test: Induction of mitochondrial membrane potential loss in human T24 cells at 8 to 16 uM measured after 24 hrs by JC1 dye based fluorescence assay; format: functional, cell-based; settings: dose 8-16 µM
[7] = tested on: T-24; test: Antiproliferative activity against human T24 cells assessed as reduction in Ki67 expression at 4 to 12 uM measured after 24 hrs by DAPI staining based immunofluorescence analysis; format: functional, cell-based; settings: dose 4-12 µM
[8] = tested on: T-24; test: Induction of apoptosis in human T24 cells assessed as early apoptotic cells at 6 uM measured after 48 hrs by Annexin V-FITC/propidium iodide staining based flow cytometry (reference value: 1.2%); format: functional
[9] = tested on: T-24; test: Effect on RPA2 expression in human T24 cells at 6 uM measured after 24 to 30 hrs by proteomic analysis; format: functional, cell-based; settings: time 24-30 hrs
[10] = tested on: T-24; test: Induction of cell membrane disruption in human T24 cells at 4 to 20 uM measured after 24 hrs by Dio/Hoechst 33342 staining based fluorescence assay; settings: dose 4-20 µM
[11] = tested on: T-24; test: Antimigratory activity against human T24 cells assessed as down regulation of NEXN expression at 6 uM measured after 24 to 30 hrs by proteomic analysis; format: functional, cell-based; settings: time 24-30 hrs
[12] = tested on: T-24; test: Induction of apoptosis in human T24 cells assessed as necrotic cells at 6 uM measured after 48 hrs by Annexin V-FITC/propidium iodide staining based flow cytometry (reference value: 0.57%); format: functional
[13] = tested on: T-24; test: Induction of apoptosis in human T24 cells assessed as effect on ARL6IP1 expression at 6 uM measured after 24 to 30 hrs by proteomic analysis; format: functional, cell-based; settings: time 24-30 hrs

C=C1C(=O)[C@]23C[C@H]1C[C@@H](O)[C@H]2[C@@]12CO[C@@H](O)[C@@H]1C(C)(C)CC[C@@H]2OC3=O [NODOSIN]
Activity [1]: Active | Activity [2]: Active | Activity [3]: Active | Activity [4]: 0.35% | Activity [5]: 10.54% | Activity [6]: Active | Activity [7]: Active | Activity [8]: 10.74% | Activity [9]: Active | Activity [10]: Active | Activity [11]: Active | Activity [12]: 0.4% | Activity [13]: Active
